Test results taken from patent US20230355568A1, “THERAPEUTIC AGENT FOR MALIGNANT MESOTHELIOMA AND METHOD FOR SELECTING PATIENT HAVING MALIGNANT MESOTHELIOMA” (National University Corporation Tokai National Higher …, priority 2020, published 2023).
Structures can show the parent of a compound that is named as a salt. Bridge positions count the residues as written; N and C are the ends. Square brackets hold non-standard residues; d marks the D form. Peptide text beside a SMILES is read from it. Orn = NCCC[C@H](N)C(=O)O; Mpa = O=C(O)CCS

Tests used:
[1] = test system: malignant mesothelioma cell line NCI-H2052; experiment: WST-1 assay, combined use of Cligosiban and cisplatin, NCI-H2052; format: cell-based; conditions: Cligosiban 15 μM and/or cisplatin 0.8 μM, culture five days (FIG. 8)
Procedure: (§1) The procedure is illustrated below. • (1) Cells of malignant mesothelioma cell line NCI-H2373 were seeded on a dish and cultured for one day. • (2) Cligosiban 45 μM and cisplatin (product number 033-20091, purchased from FUJIFILM Wako Pure Chemical Corporation) 6 μM were administered to the dish. • (3) After culture for five days, evaluation with WST-1 assay was performed.
The same procedure as that in Example 21 was applied except that the malignant mesothelioma cell line was replaced with NCI-H2052 and that Cligosiban 15 μM and cisplatin 0.8 μM were administered to the dish.
The same procedure as that in Example 22 was applied except that the malignant mesothelioma cell line was replaced with NCI-H2052 and that Cligosiban 15 μM was administered.
The same procedure as that in Example 23 was applied except that neither Cligosiban 15 μM nor cisplatin 0.8 μM was administered.
The same procedure as that in Example 23 was applied except that only cisplatin 0.8 μM was administered.

[2] = test system: malignant mesothelioma cell line NCI-2373; experiment: WST-1 assay with oxytocin receptor inhibitor, NCI-2373; format: cell-based; conditions: culture five days, Cligosiban 0-60 μM, other inhibitors 0-80 μM (FIG. 3, FIG. 4)
Procedure: (§2) The procedure is illustrated below. • (1) Cells of malignant mesothelioma cell line NCI-H2052 were seeded on a dish and cultured for one day. • (2) Cligosiban was administered to the dish at a concentration of 0, 5, 10, 15, 20, or 25 μM. • (3) After culture for five days, evaluation with WST-1 assay was performed. The WST-1 assay is an assay method to administer cell proliferation test agent WST-1 (product number: 11644807001, purchased from Roche) and evaluate cell proliferation by a colorimetric method.
The same procedure as that in Example 3 was applied except that the malignant mesothelioma cell line was replaced with NCI-2373 (purchased from ATCC) and Cligosiban was administered to the dish at a concentration of 0, 20, 30, 40, 50, or 60 μM.
The same procedure as that in Example 4 was applied except that the oxytocin receptor inhibitor was replaced with OT-R antagonist 1, which was administered to the dish at a concentration of 0, 20, 40, 60, or 80 μM.
The same procedure as that in Example 6 was applied except that the oxytocin receptor inhibitor was replaced with L368,899 hydrochloride.
The same procedure as that in Example 6 was applied except that the oxytocin receptor inhibitor was replaced with Atosiban.

[3] = test system: malignant mesothelioma cell line NCI-H2052; experiment: Proliferation suppression of malignant mesothelioma cells with Cligosiban using Xenograft model; format: in vivo; conditions: NCI-H2052 subcutaneous in nude mice, Cligosiban oral 60 mg/kg every other day, 10 doses, vs no Cligosiban (FIG. 1)
Procedure: (§3) The procedure is illustrated below. • (1) 5.0×10^6 cells of malignant mesothelioma cell line NCI-H2052 (purchased from ATCC) were administered to the subcutaneous left buttock of nude mice (BALB/c nude (nu/nu) female, 6 to 8 weeks old: purchased from Charles River Japan). • (2) After 3 days from the subcutaneous administration, oral administration of Cligosiban (purchased from MedChemExpress) was started, and the oral administration was applied at each dose of 60 mg/kg every other day for a total of 10 doses. • (3) After one week from the tenth oral administration, the nude mice were dissected, and the subcutaneous tumor weights were measured.
The same procedure as that in Example 1 was applied except that no Cligosiban was administered.

[4] = test system: malignant mesothelioma cell line NCI-H2052; experiment: WST-1 assay with oxytocin receptor inhibitor, NCI-H2052; format: cell-based; conditions: culture five days, Cligosiban 0-25 μM, other inhibitors 0-80 μM (FIG. 3, FIG. 4)
Procedure: as §2
The same procedure as that in Example 3 was applied except that the oxytocin receptor inhibitor was replaced with OT-R antagonist 1 (purchased from MedChemExpress), which was administered to the dish at a concentration of 0, 20, 40, 60, or 80 μM.
The same procedure as that in Example 5 was applied except that the oxytocin receptor inhibitor was replaced with L368,899 hydrochloride (purchased from MedChemExpress).
The same procedure as that in Example 5 was applied except that the oxytocin receptor inhibitor was replaced with Atosiban (purchased from MedChemExpress).

[5] = test system: malignant mesothelioma cell line NCI-H2373; experiment: WST-1 assay, combined use of Cligosiban and cisplatin, NCI-H2373; format: cell-based; conditions: Cligosiban 45 μM and/or cisplatin 6 μM, culture five days (FIG. 8)
Procedure: as §1
The same procedure as that in Example 21 was applied except that only Cligosiban 45 μM was administered.
The same procedure as that in Example 21 was applied except that neither Cligosiban 45 μM nor cisplatin 6 μM was administered.
The same procedure as that in Example 21 was applied except that only cisplatin 6 μM was administered.

[6] = test system: malignant mesothelioma cell line NCI-H2052; experiment: Xenograft model: cisplatin and pemetrexed, Cligosiban, and combined use; format: in vivo; conditions: NCI-H2052 subcutaneous in nude mice; Cligosiban oral 60 mg/kg every other day, 10 doses from day 7; cisplatin 2 mg/kg and pemetrexed 25 mg/kg once tail vein day 7; measured two days after tenth dose (FIG. 9)
Procedure: as §3, with “After 7” for “After 3”, “After 7 days from the subcutaneous administration, cisplatin (product number 033-20091, purchased from FUJIFILM Wako Pure Chemical Corporation) 2 mg/kg and pemetrexed disodium heptahydrate (product number 161-26263, purchased from FUJIFILM Wako Pure Chemical Corporation) 25 mg/kg were once injected into a tail vein. • (4) After two days” for “After one week”, “oral administration of Cligosiban,” for “oral administration,”
The same procedure as that in Example 25 was applied except that neither cisplatin nor pemetrexed was administered.
The same procedure as that in Example 25 was applied except that neither Cligosiban nor cisplatin and pemetrexed was administered.
The same procedure as that in Example 25 was applied except that Cligosiban was not administered.

Compound | proliferation of malignant mesothelioma cells (WST-1 assay) [1] | proliferation of malignant mesothelioma cells (WST-1 assay) [2] | subcutaneous tumor weight ([3]; from day 3, measured one week after tenth dose) | growth of the subcutaneous tumor [3] | proliferation of malignant mesothelioma cells (WST-1 assay) [4] | proliferation of malignant mesothelioma cells (WST-1 assay) [5] | subcutaneous tumor weight [6]
COCc1nnc(N2CC(Oc3ccc(F)cc3Cl)C2)n1-c1ccc(OC)nc1 [Cligosiban] | more suppresses proliferation of malignant mesothelioma cells than Comparative example 11 and Comparative example 13 | more suppresses proliferation of malignant mesothelioma cells | smaller than that of Comparative example 1 | suppresses growth of the subcutaneous tumor statistically, significantly compared to Comparative example 1 | more suppresses proliferation of malignant mesothelioma cells | more suppresses proliferation of malignant mesothelioma cells than Comparative example 11 and Comparative example 13 | smaller than the subcutaneous tumor weight of Comparative example 16
CO/N=C1/C[C@@H](C(=O)NC[C@@H](O)c2ccccc2)N(C(=O)c2ccc(-c3ccccc3C)cc2)C1 [OT-R antagonist 1] |  | proliferation of malignant mesothelioma cells was suppressed |  |  | proliferation of malignant mesothelioma cells was suppressed |  | 
Cc1ccccc1N1CCN(S(=O)(=O)C[C@@]23CC[C@H](CC2NC(=O)[C@H](N)CCS(C)(=O)=O)C3(C)C)CC1 (stereo partly drawn) [L368,899 hydrochloride] |  | proliferation of malignant mesothelioma cells was suppressed |  |  | proliferation of malignant mesothelioma cells was suppressed |  | 
N.N.[Cl][Pt][Cl] [cisplatin] | more suppresses proliferation of malignant mesothelioma cells than Comparative example 11 and Comparative example 13 |  |  |  |  | more suppresses proliferation of malignant mesothelioma cells than Comparative example 11 and Comparative example 13 | 
CCOc1ccc(C[C@H]2NC(=O)CCSSC[C@@H](C(=O)N3CCC[C@H]3C(=O)N[C@@H](CCCN)C(=O)NCC(N)=O)NC(=O)[C@H](CC(N)=O)NC(=O)[C@H]([C@@H](C)O)NC(=O)[C@H]([C@@H](C)CC)NC2=O)cc1 [Atosiban] ([Mpa][dY](Et)ITNCP[Orn]G-NH2; disulfide 1-6) |  | proliferation of malignant mesothelioma cells was suppressed |  |  | proliferation of malignant mesothelioma cells was suppressed |  | 
